Test results from PMC3744471, “Mitochondria Are the Target Organelle of Differentiation-Inducing Factor-3, an Anti-Tumor Agent Isolated from Dictyostelium Discoideum” (PLoS ONE, 2013).

Tests used:
[1] = system: mitochondria in HeLa cells; test: Mitochondrial morphology by fluorescence microscopy; format: cell-based, human; conditions: BODIPY-DIF-3 20 µM 1 day, Bu-DIF-3 5 µM, CCCP 10 µM 3 days
Procedure: For high magnification multi-color imaging, cells were incubated for the appropriate times with 2 ml of DMEM-FBS (HeLa and 3T3-L1) or MEM-α-FBS (LM8) containing various compounds in 35-mm plastic dishes (tissue culture treated µ-Dish; ibidi, Martinsried, Germany). The cells were washed twice with 2 ml of PBS(–), submerged in 2 ml of Hepes buffer (pH 7.4), and observed at room temperature with a Keyence BZ-9000 fluorescence microscope (Osaka, Japan) equipped with an oil immersion 100× lens (CFI Plan Apo VC100XH) and multi-filters that can distinguish four fluorescent probes simultaneously. Original digitized images of z-stack sections were taken at 0.4- µm intervals, which were then treated (haze-reduced) with the Keyence BZ analyzer software (for deconvolution fluorescence imaging), and compiled into 3D images; when 3D images were constructed, nonlinear adjustment was performed to obtain clear (high contrast) images without haze. All color images are presented in pseudo colors.

[2] = system: cyclin D1 and cyclin D3 in HeLa cells; test: Western blotting of cyclin D expression; format: cell-based, human; conditions: 20 h, DIF-3 20 µM, Bu-DIF-3 5–7.5 µM, BODIPY-DIF-3 20 µM, CCCP 10 µM, azide 0.01%
Procedure: HeLa cells were incubated for 20 h with 1 ml of DMEM-FBS containing the indicated additives in 12-well plates (2–4×10^5 cells/well), washed twice with PBS(–), harvested by adding 100–200 µl of an SDS-sample buffer solution (in proportion to cell density: relative cell number), sonicated (heated), and used for SDS-PAGE. Western blot transfer and immunoblotting were performed as described previously, by using a primary antibody for cyclin D1, cyclin D2, cyclin D3, or GAPDH, and a second antibody, an alkaline phosphatase-conjugated anti-mouse or anti-rabbit IgG antibody. […] Visualized protein bands were then digitized and quantified by using Adobe Photoshop CS4 (version 11.0) (Adobe, San Jose, CA, USA) and ImageJ Software (version 1.4) (http://rsb.info.nih.gov/ij/).

LM8 cells = test: Cell growth assay (Alamar blue), LM8; format: cell-based, mouse; conditions: for IC50: Mus musculus, 72 h, LM8 cells, 3 days, Alamar blue; for Effect on cell growth in LM8 cells: BODIPY-DIF-3 5–20 µM, CCCP 2–10 µM, 4 days
Procedure: (§1) HeLa, LM8, and 3T3-L1 cells were cultured for 3 days at 2.5–5×10^3 cells/well in 12-well plates with each well filled with 1 ml of DMEM-FBS (for HeLa and 3T3-L1) or MEM-α-FBS (for LM8) together with drugs at various concentrations. Then, the incubation media were discarded and the cells were washed with 1 ml of PBS(–) (20 mM phosphate buffered saline, pH 7.4) and incubated with 1 ml of fresh DMEM-FBS (HeLa and 3T3-L1) or MEM-α-FBS (LM8) containing 5% (v/v) of Alamar blue (a cell number indicator; Wako Pure Chemical Industries, Osaka, Japan) until the color changed. The relative cell number was assessed by measuring absorbance at 570 nm (reference at 595 nm) as described previously, [14]; DIF-related compounds and BODIPY-conjugated compounds hardly disturbed the cell number assessment with Alamar blue (data not shown), probably because the additive compounds were washed out when cell number was assessed. For determination of the 50% inhibitory concentration (IC50) of each drug, the cells were cultured for 3 days in the presence of each drug at various concentrations. Relative cell numbers were determined for each concentration for each drug and the IC50 was determined from the dose-response curves.
(§2) Supplementary file pone.0072118.s001.tif: Figure S1 Effects of BODIPY-DIF-3 and CCCP on cell growth, and cellular localization of BODIPY-DIF-3 in LM8 cells. (A) Cells were incubated for 4 days with 5–20 µM of BODIPY-DIF-3 (closed circles) or 2–10 µM of CCCP (closed triangles), and relative cell number was assessed by the use of Alamar blue. Data are the mean values and SD (bars) of three independent experiments. (B) Cells were incubated for 0.5 h or 3 days with 20 µM of BODIPY-DIF-3, washed free of the additive, and observed microscopically. (C) Cells were incubated for 0.5 h with BODIPY-DIF-3 (20 µM), Hoechst (0.1 µg/ml), and MitoTracker (0.1 µM), washed free of the additives, and observed by using a high-magnification fluorescence microscope. (D) Cells were incubated for 3 days with BODIPY-DIF-3 (20 µM) and then for 0.5 h with Hoechst (0.1 µg/ml) and MitoTracker (0.1 µM). Cells were washed free of the additives and observed by using a high-magnification fluorescence microscope. (TIF) Click here for additional data file.

3T3-L1 cells = test: Cell growth assay (Alamar blue), 3T3-L1; format: cell-based, mouse; conditions: for IC50: Mus musculus, 72 h, 3T3-L1 cells, 3 days, Alamar blue; for Effect on cell growth in 3T3-L1 cells: BODIPY-DIF-3 5–20 µM, CCCP 2–10 µM, 4 days
Procedure: as §1
as §2, with “pone.0072118.s002.tif:” for “pone.0072118.s001.tif:”, “S2” for “S1”, “3T3-L1” for “LM8”

| SMILES | Mitochondrial swelling [1] | Expression of cyclin D1 [2] | Expression of cyclin D3 [2] | IC50 (LM8 cells) [µM] | IC50 (3T3-L1 cells) [µM] | Effect on cell growth in LM8 cells (LM8 cells) | Effect on cell growth in 3T3-L1 cells (3T3-L1 cells) |
| --- | --- | --- | --- | --- | --- | --- | --- |
| CCCCCC(=O)c1c(O)cc(OC)c(Cl)c1O [DIF-3, 1-(3-chloro-2,6-dihydroxy-4-methoxyphenyl)hexan-1-one] | the mitochondria in all cells swelled greatly | significantly decreased | significantly decreased | 15.5 | > 20 |  |  |
| CCCCCC(=O)c1c(O)cc(OCCCC)c(Cl)c1O [Bu-DIF-3, 1-(3-chloro-2,6-dihydroxy-4-butoxyphenyl)hexan-1-one] | the mitochondria in all cells swelled greatly | significantly decreased | significantly decreased | 2 | 4.3 |  |  |
| CCCCCC(=O)c1c(O)cc(OCCCCNC(=O)CCC2=[N+]3C(=Cc4c(C)cc(C)n4[B-]3(F)F)C=C2)c(Cl)c1O [BODIPY-DIF-3] | caused many mitochondria to swell in most cells within 1 day | significantly decreased | significantly decreased | 12.2 | 20 | dose-dependently suppressed cell growth | dose-dependently suppressed cell growth |
| N#CC(C#N)=NNc1cccc(Cl)c1 [CCCP, carbonyl cyanide m-chlorophenylhydrazone, reference compound] | Mitochondrial swelling was induced in most HeLa cells | significantly suppressed | significantly suppressed | 6.8 | 7.5 | dose-dependently suppressed cell growth | dose-dependently suppressed cell growth |
